According to publication PMC8976910, “Novel oxadiazole derivatives as potent inhibitors of α-amylase and α-glucosidase enzymes: Synthesis, in vitro evaluation, and molecular docking studies” (Iranian Journal of Basic Medical Sciences, 2021):
Converted amounts (≈) assume the structure as drawn.

Key:
α-glucosidase = assay: In vitro alpha-glucosidase inhibitory activity (p-NPG, 400 nm); assay type: biochemical; settings: for % Inhibition (alpha-glucosidase): concentration not stated (test compounds 1-100 μg/ml); for IC50 µg/ml ± SEM (alpha-glucosidase inhibition): p-NPG substrate, 37 °C, test compounds 1-100 μg/ml
Description: The α-glucosidase inhibitory activity was determined according to a previously reported method with slight modifications([19]). […] A 500 μl solution was prepared by adding 10 μl of test compounds (1-100 μg/ml) and 490 μl of phosphate buffer (pH 6.9). 250 μl of 5mM p-nitrophenyl α-d-glucopyranoside (p-NPG) were added to this reaction mixture and incubated for 10 min at 37 °C. […] The α-glucosidase inhibitory activity was calculated as a measure of p-nitrophenol released from p-NPG. […] The percentage inhibition was calculated using the following formula; % Inhibition = (^Astandard^- Asample) / ^Astandard × 100.

[1] = target: T1, porcine pancreatic amylase (Sus scrofa, UniProt P00690); assay: In vitro alpha-amylase inhibitory activity (starch/DNS, 540 nm); assay type: biochemical; settings: for % Inhibition (alpha-amylase): concentration not stated (test compounds 1–100 μg/ml); for IC50: porcine pancreatic amylase, pH 6.8, 25 °C, test compounds 1–100 μg/ml, ± SEM, read-out: IC50 µg/ml ± SEM (alpha-amylase inhibition) (converted)
T1 sequence (P00690 16-511): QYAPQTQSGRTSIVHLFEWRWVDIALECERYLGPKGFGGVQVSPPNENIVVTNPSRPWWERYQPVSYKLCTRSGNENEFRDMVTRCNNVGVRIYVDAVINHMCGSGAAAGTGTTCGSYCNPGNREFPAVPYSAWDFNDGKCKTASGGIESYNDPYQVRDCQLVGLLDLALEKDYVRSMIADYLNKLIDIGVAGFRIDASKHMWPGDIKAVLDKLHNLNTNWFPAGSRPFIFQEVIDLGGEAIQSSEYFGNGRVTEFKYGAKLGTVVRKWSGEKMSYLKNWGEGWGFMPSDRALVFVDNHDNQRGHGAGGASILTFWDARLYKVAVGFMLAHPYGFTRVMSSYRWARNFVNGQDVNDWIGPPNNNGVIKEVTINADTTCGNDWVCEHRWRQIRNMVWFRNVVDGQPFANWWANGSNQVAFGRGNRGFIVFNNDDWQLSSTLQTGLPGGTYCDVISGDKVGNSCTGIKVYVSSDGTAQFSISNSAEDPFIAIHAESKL
Description: To this reaction mixture, 1% starch solution was added (500 μl in 0.2 mM phosphate buffer, pH 6.8) and incubated for an additional 10 min. 1 ml of DNS (di-nitro-salicylic-acid) color reagent was added to arrest the reaction. The reaction mixture was boiled for 10 min and then brought to ambient temperature. The absorbance of the resulting mixture was measured at 540 nm and the inhibitory activity was calculated using the following formula.
% Inhibition =(Astandard -Asample)/Astandard× 100
The IC50 was calculated using non-linear regression plot of % inhibition versus concentrations with the help of GraphPad Prism, version 6.0.

[2] = system: 3T3 (mouse fibroblast) cells; assay: MTT assay for cytotoxicity analysis; assay type: cell-based; settings: for cytotoxic effects against 3T3 (mouse fibroblast) cells, in words: MTT, 1.875-30 µM; for inhibition at 1.875 µM / inhibition at 3.75 µM / inhibition at 7.5 µM / inhibition at 15 µM / inhibition at 30 µM: Mus musculus, NIH3T3, 48 h, 3T3 cells, 48 hr, read-out: % Growth Inhibition
Description: Cytotoxic activity of compounds was evaluated in 96-well flat-bottomed microplates by using the standard MTT (3-[4, 5-dimethylthiazole-2-yl]-2, 5-diphenyl-tetrazolium bromide) colorimetric assay ([34]). For this purpose, 3T3 (mouse fibroblast, ATCC # CRL-1658, Lot # 59049195) cells were cultured in Dulbecco’s Modified Eagle Medium, supplemented with 5% fetal bovine serum (FBS), 100 IU/ml penicillin, and 100 µg/ml streptomycin in 75 cm^2 flasks, and kept in a 5% CO2 incubator at 37 °C. Exponentially growing cells were harvested, counted with a hemocytometer, and diluted with a particular medium. Cell culture with concentration of 5x10^4 cells/ml was prepared and introduced (100 µl/well) into 96-well plates. After overnight incubation, the medium was removed and 200 µl of fresh medium was added with various oxadiazole concentrations (30 µM, 15 µM, 7.5 µM, 3.75 µM, and 1.875 µM). After 48 hr, 200 µl MTT (0.5 mg/ml) was added to each well and incubated further for 4 hr. Subsequently, 100 µl of DMSO was added to each well. The extent of MTT reduction to formazan within cells was calculated by measuring the absorbance at 540 nm, using a microplate reader (Spectra Max Plus, Molecular Devices, CA, USA). The cytotoxicity was recorded as concentration causing 50% growth inhibition (IC50) for 3T3 cells. The percent inhibition was calculated by using the following formula;
% Inhibition=100-((mean of O.D of test compound-mean of O.D of negative control)/ (mean of O.D of positive control - mean of O.D of negative control) *100).
The results (% inhibition) were processed by using SoftMax Pro software (Molecular Device, USA).

Row | Compound | % Inhibition (alpha-glucosidase) (α-glucosidase) | IC50 µg/ml ± SEM (alpha-glucosidase inhibition) (α-glucosidase) | melting point | % Inhibition (alpha-amylase) [1] | IC50 [1] | cytotoxic effects against 3T3 (mouse fibroblast) cells, in words [2] | inhibition at 1.875 µM [2] | inhibition at 3.75 µM [2] | inhibition at 7.5 µM [2] | inhibition at 15 µM [2] | inhibition at 30 µM [2]
1 | OCCSc1nnc(-c2cccc(I)c2)o1 [Compound 5e, 2-{[5-(3-iodophenyl)-1,3,4-oxadiazol-2-yl]sulfanyl} ethan-1-ol] | 40.2% | 68.02 ± 0.43 µg/mL (≈ 195 µM) | 170 °C | 40.2% | 279 µM | – | – | – | – | – | –
2 | OCCSc1nnc(-c2cccnc2)o1 [4a(b), 2-{[5-(pyridin-3-yl)-1,3,4-oxadiazol-2-yl]sulfanyl} ethan-1-ol] | – | No effect | – | 26% | 831 µM | – | – | – | – | – | –
3 | OCCSc1nnc(-c2cc(O)c(O)c(O)c2)o1 [Compound 5f, 5-{5-[(2-hydroxyethyl)sulfanyl]-1,3,4-oxadiazol-2-yl} benzene-1,2,3-triol] | 9.04% | 273.06 ± 0.04 µg/mL (≈ 1010 µM) | 265 to 270 °C | 19.04% | 772 µM | – | – | – | – | – | –
4 | OCCSc1nnc(-c2cccc(Br)c2)o1 [Compound 5d, 2-{[5-(3-bromophenyl)-1,3,4-oxadiazol-2-yl]sulfanyl} ethan-1-ol] | 39.7% | 73.61 ± 0.02 µg/mL (≈ 244 µM) | 186 to 190 °C | 43.6% | 298 µM | – | – | – | – | – | –
5 | OCCN1C[C@H](O)[C@@H](O)[C@H](O)[C@H]1CO [Miglitol, reference compound] | 98.9% | 11.47 ± 0.02 µg/mL (≈ 55.4 µM) | – | – | – | – | – | – | – | – | –
6 | OCCSc1nnc(-c2ccncc2)o1 [4a(c), 2-{[5-(pyridin-4-yl)-1,3,4-oxadiazol-2-yl]sulfanyl} ethan-1-ol] | 16.3% | 299.11 ± 0.31 µg/mL (≈ 1340 µM) | 180 °C | 3.21% | 1770 µM | – | – | – | – | – | –
7 | OCCSc1nnc(-c2ccccn2)o1 [4a(a), 2-{[5-(pyridin-2-yl)-1,3,4-oxadiazol-2-yl]sulfanyl} ethan-1-ol] | 97.2% | 15.45 ± 0.20 µg/mL (≈ 69.2 µM) | – | 9.42% | 1300 µM | – | – | – | – | – | –
8 | OCCSc1nnc(-c2ccccc2)o1 [Compound 5g, 2-[(5-phenyl-1,3,4-oxadiazol-2-yl)sulfanyl] ethan-1-ol] | 36.16% | 80.8 ± 0.52 µg/mL (≈ 364 µM) | 207 to 210 °C | 92.16% | 58.9 µM | negligible cytotoxic effects | ~1.5% | 3% | 8% | 10% | 19.6%
9 | OCCSc1nnc(-c2ccc(O)cc2)o1 [Compound 5b, 4-{5-[(2-hydroxyethyl)sulfanyl]-1,3,4-oxadiazol-2-yl} phenol] | 41.8% | 62.01 ± 0.92 µg/mL (≈ 260 µM) | – | 50.11% | 272 µM | – | – | – | – | – | –
10 | OCCSc1nnc(-c2ccccc2Cl)o1 [Compound 5c, 2-{[5-(2-chlorophenyl)-1,3,4-oxadiazol-2-yl]sulfanyl} ethan-1-ol] | 40.04% | 69.04 ± 0.27 µg/mL (≈ 269 µM) | 165 °C | 49.41% | 267 µM | – | – | – | – | – | –
11 | OCCSc1nnc(-c2ccccc2O)o1 [Compound 5a, 2-{5-[(2-hydroxyethyl)sulfanyl]-1,3,4-oxadiazol-2-yl} phenol] | 98.14% | 12.27 ± 0.41 µg/mL (≈ 51.5 µM) | 165 to 170 °C | 56.41% | 252 µM | negligible cytotoxic effects | 3% | 5% | 12% | 16% | 26.2%
